Each compound was assayed against T1, Full length human recombinant HDAC8 protein (Homo sapiens, UniProt Q9BY41) (assay: In vitro histone deacetylase assay: enzymatic HDAC8 assay, electrophoretic mobility shift). Conditions: substrate RHKK(Ac)-NH2, 1 nM enzyme, compounds listed under IC50 range headings.
T1 construct: Full length human recombinant HDAC8 protein was expressed in baculoviral system; made in house
T1 sequence (Q9BY41 1-377): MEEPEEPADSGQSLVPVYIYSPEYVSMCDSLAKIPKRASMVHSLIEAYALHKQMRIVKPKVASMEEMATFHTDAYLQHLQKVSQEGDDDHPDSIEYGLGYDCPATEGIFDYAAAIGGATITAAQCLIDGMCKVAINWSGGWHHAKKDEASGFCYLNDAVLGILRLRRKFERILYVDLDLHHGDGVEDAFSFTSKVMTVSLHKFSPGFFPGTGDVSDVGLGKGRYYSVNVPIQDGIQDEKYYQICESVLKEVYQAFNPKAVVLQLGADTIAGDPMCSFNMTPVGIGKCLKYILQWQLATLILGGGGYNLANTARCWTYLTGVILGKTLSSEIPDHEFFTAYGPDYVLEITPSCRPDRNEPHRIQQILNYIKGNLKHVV
Type: biochemical
Procedure: The enzymatic HDAC8 assay was performed using electrophoretic mobility shift assay. Full length human recombinant HDAC8 protein was expressed in baculoviral system and purified by affinity chromatography. The enzymatic reactions were assembled in 384 well plates in a total volume of 25 μL in a reaction buffer composing: 100 mM HEPES, pH7.5, 25 mM KC, 0.1% bovine serum albumin, 0.01% Triton X-100, 1% DMSO (from compounds) 2 μM of the fluorescently labeled peptide substrate and enzyme. The enzyme was added at a final concentration of 1 nM. The peptide substrate RHKK(Ac)-NH2 was used. The compounds were tested at 12 concentrations spaced by 3× dilution intervals. Negative control samples (0%-inhibition in the absence of inhibitor) and positive control samples (100%-inhibition) were assembled in replicates of four in each assay plate. The reactions were incubated at 25° C. and quenched by the addition of 45 μL of termination buffer (100 mM HEPES, pH 7.5, 0.01% Triton X-100, 0.05% SDS).
The terminated assay plates were analyzed on LabChip® 3000 microfluidic electrophoresis instrument (Perkin Elmer/Caliper Life Sciences). The fluorescence intensity of the electrophoretically separated de-acetylated product and substrate peptide was measured. Activity in each sample was determined as the product to sum ratio (PSR): P/(S+P), where P is the peak height of the product peptide and S is the peak height of the substrate peptide. Percent inhibition (Pinh) is determined using the following equation: Pinh=(PSR0%−PSRinh)/(PSR0%−PSR100%)*100, where PSRinh is the product sum ratio in the presence of inhibitor, PSR0% is the average product sum ration in the absence of inhibitor and PSR 100% is the average product sum ratio in 100%-inhibition control samples. The IC50 values of inhibitors were determined by fitting the %-inhibition curves with 4 parameter dose-response model using XLfit 4 software. Ranges of IC50 values for compounds of the invention are disclosed in Table 26.

| IC50 [µM] | Structure (SMILES) |
| --- | --- |
| < 1 | CC(C)(C)OC(=O)N1CCC2(CC1)CCN(c1ccccc1/C=C/C(=O)NO)C2 [Example I-111, tert-butyl (E)-2-(2-(3-(hydroxyamino)-3-oxoprop-1-en-1-yl)phenyl)-2,8-diazaspiro[4.5]decane-8-carboxylic] |
| < 1 | CC(C)(C)OC(=O)N1CCC2(CCN(c3ccccc3/C=C/C(=O)NO)C2)C1 (stereo not drawn) [Example I-112, tert-butyl (E)-7-(2-(3-(hydroxyamino)-3-oxoprop-1-en-1-yl)phenyl)-2,7-dizazspiro[4.4]nonane-2-carboxylate] |
| < 1 | O=C(/C=C/c1ccccc1N1CC2(CC(NC(=O)OCc3ccccc3)CS2(=O)=O)C1)NO (stereo not drawn) [Example I-114, benzyl (E)-(2-(2-(3-(hydroxyamino)-3-oxoprop-1-en-1-yl)phenyl)-5,5-dioxido-5-thia-2-azaspiro[3,4]octan-7-yl)carbamate] |
| < 1 | O=C(/C=C/c1ccccc1NCc1nc2ccc(CCCO)cc2[nH]1)NO [Example I-116, (E)-N-hydroxy-3-(2-(((6-(3-hydroxypropyl)-1H-benzo[d]imidazol-2-yl)methyl)amino)phenyl)acrylamide] |
| < 1 | NC1CC2(CN(c3ccccc3/C=C/C(=O)NO)C2)S(=O)(=O)C1 (stereo not drawn) [Example I-117, (E)-3-(2-(7-amino-5,5-dioxido-5-thia-2-azaspiro[3.4]octan-2-yl)phenyl)-N-hydroxyacrylamide 2,2,2-trifluoroacetate] |
| < 1 | CC(C)N(C(=O)c1cccc(C(F)(F)F)c1)c1ccccc1/C=C/C(=O)NO [Example I-118, (E)-N-(2-(3-(hydroxyamino)-3-oxoprop-1-en-1-yl)phenyl)-N-isopropyl-3-(trifluoromethyl)benzamide] |
| < 1 | CN(Cc1cccc(C(F)(F)F)c1)c1ccccc1/C=C/C(=O)NO [Example I-119, (E)-N-hydroxy-3-(2-(methyl(3-(trifluoromethyl)benzyl)amino)phenyl)acrylamide] |
| < 1 | O=C(/C=C/c1ccccc1NCc1ccc(-c2ccccc2)c(C(F)(F)F)c1)NO [Example I-120, (E)-N-hydroxy-3-(2-(((2-(trifluoromethyl)-[1,1′-biphenyl]-4-yl)methyl)amino)phenyl)acrylamide] |
| < 1 | Cn1c(CNc2ccccc2/C=C/C(=O)NO)nc(Cl)c1Cl [Example I-121, (E)-3-(2-(((4,5-dichloro-1-methyl-1H-imidazol-2-yl)methyl)amino)phenyl)-N-hyroxyacrylamide] |
| < 1 | O=C(/C=C/c1cccnc1NC(=O)c1cccc(C(F)(F)F)c1)NO [Example I-122] |
| < 1 | O=C(/C=C/c1ncccc1NC(=O)c1cccc(C(F)(F)F)c1)NO [Example I-124, (E)-N-(2-(3-(hydroxyamino)-3-oxoprop-1-en-1-yl)pyridin-3-yl)-3-(trifluoromethyl)benzamide] |
| < 1 | CCCCC(=O)NC1CCN(c2ccccc2/C=C/C(=O)NO)CC1 [Example I-125, (E)-N-(1-(2-(3-(hydroxyamino)-3-oxoprop-1-en-1-yl)phenyl)piperidin-4-yl)pentanamide] |
| < 1 | O=C(/C=C/c1ccccc1N1CCC(NC(=O)C2CCCCC2)CC1)NO [Example I-126, (E)-N-(1-(2-(3-(hydroxyamino)-3-oxoprop-1-en-1-yl)phenyl)piperidin-4-yl)cyclohexanecarboxamide] |
| < 1 | CS(=O)(=O)N1CCCC(C(=O)NC2CCN(c3ccccc3/C=C/C(=O)NO)CC2)C1 (stereo not drawn) [Example I-127] |
| < 1 | O=C(/C=C/c1ccccc1N1CCC(NC(=O)Cc2cccs2)CC1)NO [Example I-128, (E)-N-hydroxy-3-(2-(4-(2-(thiophen-2-yl)acetamido)piperidin-1-yl)phenyl)acrylamide] |
| < 1 | O=C(/C=C/c1ccccc1N1CCC(NC(=O)CSc2ccc(F)cc2)CC1)NO [Example I-129, (E)-3-(2-(4-(2-((4-fluorophenyl)thio)acet-amido)piperidin-1-yl)phenyl)-N-hydroxyacrylamide] |
| < 1 | O=C(/C=C/c1ccccc1N1CCC(NC(=O)CCC(F)(F)F)CC1)NO [Example I-130, (E)-4,4,4-trifluoro-N-(1-(2-(3-(hydroxyamino)-3-oxoprop-1-en-1-yl)phenyl)piperidin-4-yl)butanamide] |

| IC50 [µM] | Structure (SMILES) |
| --- | --- |
| < 1 | CCSCC(=O)NC1CCN(c2ccccc2/C=C/C(=O)NO)CC1 [Example I-131] |
| < 1 | O=C(/C=C/c1ccccc1N1CCC(NC(=O)c2cccnc2)CC1)NO [Example I-132] |
| < 1 | CNc1ccc(C(=O)NC2CCN(c3ccccc3/C=C/C(=O)NO)CC2)cc1 [Example I-133, (E)-N-(1-(2-(3-(hydroxyamino)-3-oxoprop-1-en-1-yl)phenyl)piperidin-4-yl)-4-(methylamino)benzamide] |
| < 1 | CS(=O)(=O)N1CCC(CC(=O)NC2CCN(c3ccccc3/C=C/C(=O)NO)CC2)CC1 [Example I-135, (E)-N-hydroxy-3-(2-(4-(2-(1-(methylsulfonyl)piperidin-4-yl)acetamido)piperidin-1-yl)phenyl)acrylamide] |
| < 1 | CS(=O)(=O)CCCC(=O)NC1CCN(c2ccccc2/C=C/C(=O)NO)CC1 [Example I-136, (E)-N-(1-(2-(3-(hydroxyamino)-3-oxoprop-1-en-1-yl)phenyl)piperidin-4-yl)-4-(methylsulfonyl)butan-amide] |
| < 1 | O=C(/C=C/c1ccccc1N1CCC(NC(=O)CCN2CCCC2=O)CC1)NO [Example I-137, (E)-N-hydroxy-3-(2-(4-(3-(2-oxopyrrolidin-1-yl)propanamido)piperidin-1-yl)phenyl)acrylamide] |
| < 1 | O=C(/C=C/c1ccccc1N1CCC(NC(=O)CN2CCS(=O)(=O)CC2)CC1)NO [Example I-138, (E)-3-(2-(4-(2-(1,1-dioxidothiomorpholino)acetamido)piperidin-1-yl)phenyl)-N-hydroxyacrylamide] |
| < 1 | COc1cc(CC(=O)NC2CCN(c3ccccc3/C=C/C(=O)NO)CC2)ccc1O [Example I-139, (E)-N-hydroxy-3-(2-(4-(2-(4-hydroxy-3-methoxyphenyl)acetami-do)piperidin-1-yl)phenyl)acrylamide] |
| < 1 | O=C(/C=C/c1ccccc1N1CCC(NC(=O)C2Cc3ccccc3C2)CC1)NO [Example I-140, (E)-N-(1-(2-(3-(hydroxyamino)-3-oxoprop-1-en-1-yl)phenyl)piperidin-4-yl)-2,3-dihydro-1H-indene-2-carboxamide] |
| < 1 | Cc1ccccc1Oc1ncccc1C(=O)NC1CCN(c2ccccc2/C=C/C(=O)NO)CC1 [Example I-141, (E)-N-(1-(2-(3-(hydroxyamino)-3-oxoprop-1-en-1-yl)phenyl)piperdin-4-yl)-2-(o-tolyloxy)nicotinamide] |
| < 1 | O=C(/C=C/c1ccccc1N1CCC(NC(=O)C2CCC(F)(F)CC2)CC1)NO [Example I-142, (E)-4,4-difluoro-N-(1-(2-(3-(hydroxyamino)-3-oxoprop-1-en-1-yl)phenyl)piperidin-4-yl)cyclohexane-1-carboxamide] |
| < 1 | CC1(CCC(=O)NC2CCN(c3ccccc3/C=C/C(=O)NO)CC2)CC1 [Example I-143, (E)-N-hydroxy-3-(2-(4-(3-(1-methylcyclopropyl)propan-amido)piperidin-1-yl)phenyl)acrylamide] |
| < 1 | CN(CC(=O)NC1CCN(c2ccccc2/C=C/C(=O)NO)CC1)S(C)(=O)=O [Example I-144, (E)-N-hydroxy-3-(2-(4-(2-(N-methylmethylsulfonamido)acetamido)piperidin-1-yl)phenyl)acrylamide] |
| < 1 | O=C(/C=C/c1ccccc1N1CCC(NC(=O)c2cnn3c2OCCC3)CC1)NO [Example I-145, (E)-N-(1-(2-(3-(hydroxyamino)-3-oxoprop-1-en-1-yl)phenyl)piperidin-4-yl)-6,7-dihydro-5H-pyrazolo[5,1-b][1,3]oxazine-3-carboxamide] |
| < 1 | O=C(/C=C/c1ccccc1N1CCC(NC(=O)CC23CCCN2CCC3)CC1)NO [Example I-146] |
| < 1 | O=C(/C=C/c1ccccc1N1CCC(NC(=O)c2ccc3cnccc3n2)CC1)NO [Example I-147, (E)-N-(1-(2-(3-(hydroxyamino)-3-oxoprop-1-en-1-yl)phenyl)piperidin-4-yl)-1,6-naphthyridine-2-carboxamide] |

— patent publication US10508077B2 (FORMA Therapeutics, Inc., priority 2015, dated 2019)
